Assay results published in ChEMBL document CHEMBL3098001, “Synthesis and biological evaluation of cyclopentyl-triazolol-pyrimidine (CPTP) based P2Y12 antagonists” (Bioorg Med Chem Lett, 2014).

Key:
[1] = target: P2Y purinoceptor 12 (Rattus norvegicus) (UniProt Q9EPX4); assay: Antagonist activity at P2Y12 receptor in rat platelet-rich plasma assessed as inhibition of ADP-induced platelet aggregation at 3 uM incubated for 5 mins prior to ADP-challenge by light transmission-based assay
[2] = Half life in rat at 10 mg/kg, po; type: ADME, organism-based; parameters: dose 10 mg/kg, route oral; conditions: in vivo
[3] = Inhibition of CYP450 (unknown origin) at 30 uM; type: ADME; conditions: human
[4] = AUC in rat at 10 mg/kg, po; type: ADME, organism-based; parameters: dose 10 mg/kg, route oral; conditions: plasma
[5] = AUC in dog at 1 mg/kg, po; type: ADME, organism-based, Canis lupus familiaris; parameters: dose 1 mg/kg, route oral; conditions: plasma
[6] = test system: Rattus norvegicus; assay: Inhibition of ADP-induced platelet aggregation in Sprague-Dawley rat assessed as blood loss volume at 2.5 mg/kg, po administered 2 hrs prior to transection measured for 30 mins (reference value: < 0.5 ml); type: organism-based; parameters: dose 2.5 mg/kg, route oral; conditions: in vivo, 0.5 h
[7] = test system: Rattus norvegicus; assay: Inhibition of ADP-induced platelet aggregation in Sprague-Dawley rat plasma at 2.5 mg/kg, po treated 2.5 hrs prior to ADP-challenge measured after 2 mins by light transmission-based assay; type: functional
[8] = test system: Rattus norvegicus; assay: Inhibition of ADP-induced platelet aggregation in Sprague-Dawley rat assessed as blood loss volume at 10 mg/kg, po administered 2 hrs prior to transection measured for 30 mins (reference value: < 0.5 ml); type: organism-based; parameters: dose 10 mg/kg, route oral; conditions: in vivo, 0.5 h
[9] = test system: Rattus norvegicus; assay: Inhibition of ADP-induced platelet aggregation in Sprague-Dawley rat assessed as bleeding time at 5 mg/kg, po after 2 hrs (reference value: 9.4 mins); type: organism-based; parameters: dose 5 mg/kg, route oral; conditions: in vivo
[10] = test system: Rattus norvegicus; assay: Inhibition of ADP-induced platelet aggregation in Sprague-Dawley rat assessed as bleeding time at 1.25 mg/kg, po after 2 hrs (reference value: 9.4 mins); type: organism-based; parameters: dose 1.25 mg/kg, route oral; conditions: in vivo
[11] = test system: Rattus norvegicus; assay: Inhibition of ADP-induced platelet aggregation in Sprague-Dawley rat assessed as bleeding time at 2.5 mg/kg, po after 2 hrs (reference value: 9.4 mins); type: organism-based; parameters: dose 2.5 mg/kg, route oral; conditions: in vivo
[12] = Apparent volume of distribution during terminal phase in dog at 1 mg/kg, po; type: ADME, organism-based, Canis lupus familiaris; parameters: dose 1 mg/kg, route oral; conditions: in vivo, read-out: Vz/F
[13] = Half life in dog at 1 mg/kg, po; type: ADME, organism-based, Canis lupus familiaris; parameters: dose 1 mg/kg, route oral; conditions: in vivo
[14] = Apparent oral clearance in dog at 1 mg/kg; type: ADME, organism-based, Canis lupus familiaris; parameters: dose 1 mg/kg, route oral; conditions: in vivo
[15] = test system: Rattus norvegicus; assay: Inhibition of ADP-induced platelet aggregation in Sprague-Dawley rat assessed as bleeding time at 10 mg/kg, po after 2 hrs (reference value: 9.4 mins); type: organism-based; parameters: dose 10 mg/kg, route oral; conditions: in vivo
[16] = target: Cytochrome P450 2C9 (Homo sapiens, UniProt P11712); assay: Inhibition of CYP2C9 (unknown origin); type: ADME
[17] = test system: Rattus norvegicus; assay: Inhibition of ADP-induced platelet aggregation in Sprague-Dawley rat assessed as bleeding time at 0.625 mg/kg, po after 2 hrs (reference value: 9.4 mins); type: organism-based; parameters: dose 0.625 mg/kg, route oral; conditions: in vivo
[18] = test system: Rattus norvegicus; assay: Inhibition of ADP-induced platelet aggregation in Sprague-Dawley rat assessed as blood loss volume at 1.25 mg/kg, po administered 2 hrs prior to transection measured for 30 mins (reference value: < 0.5 ml); type: organism-based; parameters: dose 1.25 mg/kg, route oral; conditions: in vivo, 0.5 h
[19] = test system: Rattus norvegicus; assay: Inhibition of ADP-induced platelet aggregation in Sprague-Dawley rat assessed as blood loss volume at 0.625 mg/kg, po administered 2 hrs prior to transection measured for 30 mins (reference value: < 0.5 ml); type: organism-based; parameters: dose 0.625 mg/kg, route oral; conditions: in vivo, 0.5 h
[20] = (§1) Apparent volume of distribution during terminal phase in rat at 10 mg/kg, po; type: ADME, organism-based; parameters: dose 10 mg/kg, route oral; conditions: in vivo, read-out: Vz/F
[21] = target: Voltage-gated inwardly rectifying potassium channel KCNH2 (Homo sapiens, UniProt Q12809); assay: Inhibition of human ERG channel at 10 uM by patch-clamp technique
[22] = Cmax in dog at 1 mg/kg, po; type: ADME, organism-based, Canis lupus familiaris; parameters: dose 1 mg/kg, route oral; conditions: in vivo
[23] = Cmax in rat at 10 mg/kg, po; type: ADME, organism-based; parameters: dose 10 mg/kg, route oral; conditions: in vivo
[24] = Apparent oral clearance in rat at 10 mg/kg; type: ADME, organism-based; parameters: dose 10 mg/kg, route oral; conditions: in vivo
[25] = test system: Rattus norvegicus; assay: Inhibition of ADP-induced platelet aggregation in Sprague-Dawley rat assessed as blood loss volume at 5 mg/kg, po administered 2 hrs prior to transection measured for 30 mins (reference value: < 0.5 ml); type: organism-based; parameters: dose 5 mg/kg, route oral; conditions: in vivo, 0.5 h
[26] = test system: Rattus norvegicus; assay: as §1; type: ADME, organism-based; parameters: dose 10 mg/kg, route oral; conditions: in vivo

Sequence of P2Y purinoceptor 12 (Rattus norvegicus) (Q9EPX4 whole entry): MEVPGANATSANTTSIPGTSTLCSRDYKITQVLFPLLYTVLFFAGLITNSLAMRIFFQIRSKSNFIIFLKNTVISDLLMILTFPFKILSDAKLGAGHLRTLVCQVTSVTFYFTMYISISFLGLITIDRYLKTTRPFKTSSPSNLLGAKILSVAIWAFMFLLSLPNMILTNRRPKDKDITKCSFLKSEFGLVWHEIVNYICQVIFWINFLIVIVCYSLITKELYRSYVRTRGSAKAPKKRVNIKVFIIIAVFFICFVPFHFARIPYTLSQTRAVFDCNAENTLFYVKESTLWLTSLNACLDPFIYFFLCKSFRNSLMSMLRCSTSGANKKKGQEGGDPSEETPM
Sequence of Cytochrome P450 2C9 (P11712 whole entry): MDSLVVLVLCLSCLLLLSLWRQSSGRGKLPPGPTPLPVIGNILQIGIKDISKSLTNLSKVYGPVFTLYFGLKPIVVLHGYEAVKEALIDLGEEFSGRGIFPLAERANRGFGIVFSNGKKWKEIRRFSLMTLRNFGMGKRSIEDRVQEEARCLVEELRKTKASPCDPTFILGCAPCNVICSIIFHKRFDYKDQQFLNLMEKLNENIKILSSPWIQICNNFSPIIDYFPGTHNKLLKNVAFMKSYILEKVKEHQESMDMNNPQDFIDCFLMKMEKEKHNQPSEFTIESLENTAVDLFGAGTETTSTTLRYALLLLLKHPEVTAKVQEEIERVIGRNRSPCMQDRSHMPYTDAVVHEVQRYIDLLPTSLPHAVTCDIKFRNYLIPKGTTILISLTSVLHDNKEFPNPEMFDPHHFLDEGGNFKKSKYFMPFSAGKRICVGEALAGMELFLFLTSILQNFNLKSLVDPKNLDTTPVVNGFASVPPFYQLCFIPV
Sequence of Voltage-gated inwardly rectifying potassium channel KCNH2 (Q12809 whole entry): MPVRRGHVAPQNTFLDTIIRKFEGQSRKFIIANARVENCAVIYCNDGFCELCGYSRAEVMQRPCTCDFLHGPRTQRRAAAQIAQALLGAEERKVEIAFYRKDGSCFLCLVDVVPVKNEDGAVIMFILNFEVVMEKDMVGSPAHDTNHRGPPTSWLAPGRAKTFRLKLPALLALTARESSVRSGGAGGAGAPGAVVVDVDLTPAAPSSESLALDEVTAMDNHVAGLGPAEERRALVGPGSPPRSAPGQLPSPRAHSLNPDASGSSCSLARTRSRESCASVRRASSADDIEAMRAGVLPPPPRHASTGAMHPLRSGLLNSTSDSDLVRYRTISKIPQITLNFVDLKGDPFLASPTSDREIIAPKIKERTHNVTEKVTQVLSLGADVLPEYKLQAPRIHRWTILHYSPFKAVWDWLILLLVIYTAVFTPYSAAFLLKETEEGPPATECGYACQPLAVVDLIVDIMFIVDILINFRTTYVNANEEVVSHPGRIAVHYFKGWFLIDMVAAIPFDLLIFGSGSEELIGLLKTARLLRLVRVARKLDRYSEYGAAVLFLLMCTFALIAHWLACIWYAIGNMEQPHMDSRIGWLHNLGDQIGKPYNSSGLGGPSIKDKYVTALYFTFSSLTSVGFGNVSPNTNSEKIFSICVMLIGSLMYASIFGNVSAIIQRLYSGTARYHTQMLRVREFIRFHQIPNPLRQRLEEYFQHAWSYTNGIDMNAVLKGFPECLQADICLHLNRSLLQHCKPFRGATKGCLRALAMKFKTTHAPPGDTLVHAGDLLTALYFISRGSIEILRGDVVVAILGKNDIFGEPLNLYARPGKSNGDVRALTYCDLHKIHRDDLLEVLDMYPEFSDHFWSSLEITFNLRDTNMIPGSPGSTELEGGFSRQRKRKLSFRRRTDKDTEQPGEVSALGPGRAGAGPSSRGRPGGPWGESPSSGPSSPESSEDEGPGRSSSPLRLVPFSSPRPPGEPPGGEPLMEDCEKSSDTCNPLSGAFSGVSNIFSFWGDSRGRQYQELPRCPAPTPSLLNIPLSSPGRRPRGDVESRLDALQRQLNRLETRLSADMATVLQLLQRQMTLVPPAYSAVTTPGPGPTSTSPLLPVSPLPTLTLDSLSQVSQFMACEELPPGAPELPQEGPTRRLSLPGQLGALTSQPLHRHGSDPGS

| Structure (SMILES) | inhibition [1] [%] | half-life [2] [h] | AUC [4] [ng·h/mL] | AUC [5] [ng·h/mL] | Vd/F [12] [L/kg] | half-life [13] [h] | CL/F [14] [mL/min/kg] | Vd/F [20] [L/kg] | Cmax [22] [ng/mL] | Cmax [23] [ng/mL] | CL/F [24] [mL/min/kg] | further results |
| --- | --- | --- | --- | --- | --- | --- | --- | --- | --- | --- | --- | --- |
| CCCSc1nc(NC2Cc3ccccc3C2)c2nnn([C@@H]3C[C@H](OCCO)[C@@H](O)[C@H]3O)c2n1 | 0 |  |  |  |  |  |  |  |  |  |  |  |
| CCCSc1nc(N[C@@H]2C[C@H]2c2ccc(F)c(F)c2)c2nnn([C@H]3[C@H](O)[C@H](O)[C@@H](O)[C@H]3F)c2n1 |  | 3.56 | 1200 | 469 | 6.26 | 1.94 | 36.7 | 43.4 | 110 | 303 | 139 | inhibition (INH) [3]: Not Active; Activity [6]: < 0.5 mL; inhibition in vivo at 2.5 mg/kg [7]: 95%; Activity [8]: 1.75 mL; Time [9]: > 30 min; Time [10]: 10.67 min; Time [11]: 9.76 min; Time [15]: > 30 min; IC50 [16]: 8.82 µM; Time [17]: 8.59 min; Activity [18]: < 0.5 mL; Activity [19]: < 0.5 mL; inhibition (INH) [21]: Not Active; Activity [25]: 0.9 mL |
| CCCSc1nc(N[C@@H]2C[C@H]2c2ccc(F)c(F)c2)c2nnn(C3[C@H](O)[C@H](O)[C@@H](O)[C@H]3O)c2n1 (some centres undefined) |  | 1.7 | 146 |  |  |  |  | 217 |  | 55.4 | 2200 |  |
| CCCSc1nc(N[C@@H]2C[C@H]2c2ccc(F)c(F)c2)c2nnn([C@@H]3C[C@H](F)[C@@H](O)[C@H]3O)c2n1 |  | 2.33 | 1270 | 24.3 | 88.4 | 1.21 | 865 | 27.1 | 8.29 | 195 | 137 |  |
| CCCSc1nc(N[C@@H]2C[C@H]2c2ccc(F)c(F)c2)c2nnn([C@@H]3C[C@H](OCCOCCO)[C@@H](O)[C@H]3O)c2n1 | 0 |  |  |  |  |  |  |  |  |  |  |  |
| CCCSc1nc(N[C@@H]2C[C@H]2c2ccc(F)c(F)c2)c2nnn([C@H]3[C@H](O)[C@H](O)[C@]4(CO)C[C@H]34)c2n1 | 0 |  |  |  |  |  |  |  |  |  |  |  |
| CCCSc1nc(N[C@@H]2C[C@H]2c2ccc(F)c(F)c2)c2nnn([C@@H]3C[C@H](OCC(O)CO)[C@@H](O)[C@H]3O)c2n1 (mixture of isomers) |  | 1.72 | 13.8 |  |  |  |  |  |  | 3.89 |  | Vz/F [26]: 1513 L/kg |
| CCCSc1nc(N[C@@H]2C[C@H]2c2ccc(F)c(F)c2)c2nnn([C@H]3[C@H](O)[C@H](O)[C@@H](OCCO)[C@H]3F)c2n1 |  | 2.83 | 512 | 218 | 15.4 | 2.46 | 72.3 | 82.4 | 55.6 | 127 | 350 |  |
| CCCSc1nc(N[C@@H]2C[C@H]2c2ccc(Cl)s2)c2nnn([C@@H]3C[C@H](OCCO)[C@@H](O)[C@H]3O)c2n1 |  | 3.35 | 64.4 |  |  |  |  | 206 |  | 28.7 | 712 |  |
| CCCSc1nc(N[C@@H]2C[C@H]2c2ccc(F)c(F)c2)c2nnn([C@@H]3C[C@H](OCCO)[C@@H](O)[C@H]3O)c2n1 [TICAGRELOR] |  | 2.23 | 1400 | 504 | 5.76 | 2.03 | 32.8 | 24.2 | 125 | 267 | 133 | Activity [6]: 0.5 mL; inhibition in vivo at 2.5 mg/kg [7]: 59%; Time [11]: > 30 min |
